Measured values from patent publication US6855719B1, “Imidazo[1,2-A]pyridine and pyrazolo[2,3-A]pyridine derivatives” (AstraZeneca AB, priority 1999, dated 2005).

Biological target: T1, CDK2/Cyclin E (Homo sapiens, UniProt P24941)
T1 construct: The open reading frames of CDK2 and Cyclin E were isolated by reverse transcriptase-PCR; made in house; host or cells: Sf21 (Spodoptera frugiperda) insect cells, baculovirus co-infection; GST-Rb substrate made in E. coli BL21 (DE3) pLysS
Assay: in vitro kinase assay (Scintillation Proximity Assay), incorporation of [γ-33-P]-ATP into GST-Rb
Type: biochemical
Settings: CDK2/Cyclin E partially-purified enzyme, GST-Rb substrate, 0.2 μM ATP, 60 minutes room temperature; read-out: CDK2 inhibitory activity IC50
Method: The compounds were tested in an in vitro kinase assay in 96 well format using Scintillation Proximity Assay (SPA—obtained from Amersham) for measuring incorporation of [γ-33-P]-Adenosine Triphosphate into a test substrate (GST-Retinoblastoma protein; GST-Rb). In each well was placed the compound to be tested (diluted in DMSO and water to correct concentrations) and in control wells either roscovitine as an inhibitor control or DMSO as a […] control.
Approximately 0.2 μl of CDK2/Cyclin E partially-purified enzyme (amount dependent on enzyme activity) diluted in 25 μl incubation buffer was added to each well then 20 μl of GST-Rb/ATP/ATP33 mixture (containing 0.5 μg GST-Rb and 0.2 μM ATP and 0.14 μCi [γ-33-P]-Adenosine Triphosphate in incubation buffer), and the resulting mixture shaken gently, then incubated at room temperature for 60 minutes. […]
The plates were sealed with Topseal-S plate sealers, left for two hours then spun at 2500 rpm, 1124× g., for 5 minutes. The plates were read on a Topcount for 30 seconds per well. […]
The open reading frames of CDK2 and Cyclin E were isolated by reverse transcriptase-PCR using HeLa cell and activated T cell mRNA as a template and cloned into the insect expression vector pVL1393 (obtained from Invitrogen 1995 catalogue number. V1392-20). […]

IC50	SMILES
170 nM	CCN(CC)CCOc1ccc(Nc2nccc(-c3cnc4ccccn34)n2)cc1 [Example 12, 2-[4-(2-Diethylaminoethoxy)anilino]-4-(imidazo[1,2a]pyrid-3-yl)pyrimidine]
190 nM	O=S(=O)(c1ccc(Nc2nccc(-c3cnc4ccccn34)n2)cc1)N1COCOC1 [Example 11, 2-[4-(3,5-Dioxapiperidin-1-yl)sulphonylanilino]-4-(imidazo[1,2a]pyrid-3-yl)pyrimidine]
